Measurements from ChEMBL document CHEMBL1201861, “Genomics of Drug Sensitity in Cancer screening data, Wellcome Trust Sanger Institute”.

What was measured:
Experiment in all cases: cells
COLO-741 = type: functional, cell-based, Homo sapiens; details: Homo sapiens, COLO-741
Description: SANGER: Inhibition of human COLO-741 cell growth in a cell viability assay.

COR-L23 = type: functional, cell-based, Homo sapiens; details: Homo sapiens, COR-L23;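 also: cell viability assay measuring how strongly compounds suppress growth of COR-L23 cells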
Description: SANGER: Inhibition of human COR-L23 cell growth in a cell viability assay.

Ca-Ski = type: functional, cell-based; details: Homo sapiens;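 also: cell viability assay measuring inhibition of Ca-Ski cell growth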
Description: SANGER: Inhibition of human Ca-Ski cell growth in a cell viability assay.

D-392MG = type: functional, cell-based, Homo sapiens; details: Homo sapiens, D-392MG
D-502MG = type: functional, cell-based, Homo sapiens; details: Homo sapiens, D-502MG
Description: SANGER: Inhibition of human D-502MG cell growth in a cell viability assay.

GI-ME-N = type: functional, cell-based, Homo sapiens; details: Homo sapiens, GI-ME-N;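 also: growth inhibition of human GI-ME-N cells, read out with a cell viability assay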
Description: SANGER: Inhibition of human GI-ME-N cell growth in a cell viability assay.

GMS-10 = type: functional, cell-based, Homo sapiens; details: Homo sapiens, GMS-10;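 also: growth inhibition of GMS-10 cells, read out as cell viability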
Description: SANGER: Inhibition of human GMS-10 cell growth in a cell viability assay.

GT3TKB = type: functional, cell-based, Homo sapiens; details: Homo sapiens, GT3TKB;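 also: growth inhibition of the cell line, read out with a cell viability assay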
Description: SANGER: Inhibition of human GT3TKB cell growth in a cell viability assay.

HCC1569 = type: functional, cell-based, Homo sapiens; details: Homo sapiens, HCC1569;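 also: growth inhibition of human HCC1569 cells, read out with a cell viability assay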
Description: SANGER: Inhibition of human HCC1569 cell growth in a cell viability assay.

HCC70 = type: functional, cell-based, Homo sapiens; details: Homo sapiens, HCC70;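 also: cell viability assay measuring how strongly the compound suppresses proliferation of HCC70 cells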
Description: SANGER: Inhibition of human HCC70 cell growth in a cell viability assay.

HEC-1 = type: functional, cell-based, Homo sapiens; details: Homo sapiens, HEC-1;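 also: growth inhibition of the cell line, read out with a cell viability assay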
Description: SANGER: Inhibition of human HEC-1 cell growth in a cell viability assay.

HT-1080 = type: functional, cell-based, Homo sapiens; details: Homo sapiens, HT-1080
Description: SANGER: Inhibition of human HT-1080 cell growth in a cell viability assay.

HT1197 = type: functional, cell-based, Homo sapiens, HT-1197; details: Homo sapiens, HT1197
Description: SANGER: Inhibition of human HT-1197 cell growth in a cell viability assay.

Hs-578T = type: functional, cell-based, Homo sapiens; details: Homo sapiens, Hs-578T
Description: SANGER: Inhibition of human Hs-578-T cell growth in a cell viability assay.

JVM-3 = type: functional, cell-based; details: Homo sapiens;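 also: growth inhibition of human JVM-3 cells, read out with a cell viability assay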
Description: SANGER: Inhibition of human JVM-3 cell growth in a cell viability assay.

KP-N-YN = type: functional, cell-based; details: Homo sapiens;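 also: growth inhibition of KP-N-YN cells, read out with a cell viability assay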
Description: SANGER: Inhibition of human KP-N-YN cell growth in a cell viability assay.

KYSE-140 = type: functional, cell-based, Homo sapiens; details: Homo sapiens, KYSE-140;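 also: cell viability assay measuring growth inhibition in human KYSE-140 cells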
Description: SANGER: Inhibition of human KYSE-140 cell growth in a cell viability assay.

KYSE-150 cell line = type: functional, cell-based, Homo sapiens; details: Homo sapiens, KYSE-150;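 also: growth inhibition of human KYSE-150 cells, read out with a cell viability assay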
Description: SANGER: Inhibition of human KYSE-150 cell growth in a cell viability assay.

KYSE-450 = type: functional, cell-based; details: Homo sapiens;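 also: cell growth inhibition measured by a viability assay in human KYSE-450 cells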
Description: SANGER: Inhibition of human KYSE-450 cell growth in a cell viability assay.

L-363 = type: functional, cell-based; details: Homo sapiens
Description: SANGER: Inhibition of human L-363 cell growth in a cell viability assay.

LAN-6 = type: functional, cell-based, Homo sapiens; details: Homo sapiens, LAN-6;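 also: growth inhibition of LAN-6 cells, determined with a cell viability assay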
Description: SANGER: Inhibition of human LAN-6 cell growth in a cell viability assay.

LU-134-A = type: functional, cell-based; details: Homo sapiens
Description: SANGER: Inhibition of human LU-134-A cell growth in a cell viability assay.

LoVo = type: functional, cell-based; details: Homo sapiens;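 also: growth inhibition of human LoVo cells, read out with a cell viability assay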
Description: SANGER: Inhibition of human LoVo cell growth in a cell viability assay.

MDA-MB-361 = type: functional, cell-based, Homo sapiens; details: Homo sapiens, MDA-MB-361
MOLT-4 = type: functional, cell-based; details: Homo sapiens;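 also: growth inhibition of MOLT-4 cells, determined with a cell viability readout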
Description: SANGER: Inhibition of human MOLT-4 cell growth in a cell viability assay.

MV4-11 = type: functional, cell-based, MV-4-11; details: Homo sapiens;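 also: cell viability readout measuring growth inhibition of human MV-4-11 cells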
Description: SANGER: Inhibition of human MV-4-11 cell growth in a cell viability assay.

MZ7-mel = type: functional, cell-based, Homo sapiens; details: Homo sapiens, MZ7-mel;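 also: growth inhibition of human MZ7-mel cells, measured by a cell viability assay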
Description: SANGER: Inhibition of human MZ7-mel cell growth in a cell viability assay.

NCI-H2087 = type: functional, cell-based, Homo sapiens; details: Homo sapiens, NCI-H2087;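 also: growth inhibition determined with a cell viability readout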
Description: SANGER: Inhibition of human NCI-H2087 cell growth in a cell viability assay.

NCI-H2347 = type: functional, cell-based, Homo sapiens; details: Homo sapiens, NCI-H2347;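 also: growth inhibition of the cell line, read out with a cell viability assay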
Description: SANGER: Inhibition of human NCI-H2347 cell growth in a cell viability assay.

NCI-H2405 = type: functional, cell-based, Homo sapiens; details: Homo sapiens, NCI-H2405;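 also: growth inhibition of the human cell line, read out with a cell viability assay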
Description: SANGER: Inhibition of human NCI-H2405 cell growth in a cell viability assay.

NCI-H358 = type: functional, cell-based, Homo sapiens; details: Homo sapiens, NCI-H358;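 also: growth inhibition of NCI-H358 human cells, read out with a cell viability assay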
Description: SANGER: Inhibition of human NCI-H358 cell growth in a cell viability assay.

NCI-H810 = type: functional, cell-based, Homo sapiens; details: Homo sapiens, NCI-H810;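 also: IC50 reflects inhibition of cancer cell line growth, read out with a cell viability assay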
Description: SANGER: Inhibition of human NCI-H810 cell growth in a cell viability assay.

OE19 = type: functional, cell-based, Homo sapiens; details: Homo sapiens, OE19;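 also: growth inhibition of OE19 cells, measured through a cell viability read-out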
Description: SANGER: Inhibition of human OE19 cell growth in a cell viability assay.

ONS-76 = type: functional, cell-based, Homo sapiens; details: Homo sapiens, ONS-76;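 also: growth inhibition of human ONS-76 cells, read out with a cell viability assay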
Description: SANGER: Inhibition of human ONS-76 cell growth in a cell viability assay.

RCC10RGB = type: functional, cell-based, Homo sapiens; details: Homo sapiens, RCC10RGB;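 also: growth inhibition of human RCC10RGB cells, read out by a cell viability assay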
Description: SANGER: Inhibition of human RCC10RGB cell growth in a cell viability assay.

RCM-1 = type: functional, cell-based, Homo sapiens; details: Homo sapiens, RCM-1;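 also: growth inhibition of the RCM-1 line, determined with a cell viability readout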
Description: SANGER: Inhibition of human RCM-1 cell growth in a cell viability assay.

RS4-11 = type: functional, cell-based; details: Homo sapiens;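 also: growth inhibition of RS4-11 cells, read out by a cell viability assay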
Description: SANGER: Inhibition of human RS4-11 cell growth in a cell viability assay.

RXF 393 = type: functional, cell-based; details: Homo sapiens;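 also: growth inhibition of human RXF 393 cells, read out with a cell viability assay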
Description: SANGER: Inhibition of human RXF393 cell growth in a cell viability assay.

SCC-25 = type: functional, cell-based, Homo sapiens; details: Homo sapiens, SCC-25;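 also: growth inhibition of SCC-25 cells, measured with a cell viability assay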
Description: SANGER: Inhibition of human SCC-25 cell growth in a cell viability assay.

SCC-9 = type: functional, cell-based, Homo sapiens; details: Homo sapiens, SCC-9;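 also: Read-out is a cell viability assay, with values giving inhibition of cell growth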
Description: SANGER: Inhibition of human SCC-9 cell growth in a cell viability assay.

SK-LU-1 = type: functional, cell-based, Homo sapiens; details: Homo sapiens, SK-LU-1;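 also: cell viability assay measuring growth inhibition of human SK-LU-1 cells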
Description: SANGER: Inhibition of human SK-LU-1 cell growth in a cell viability assay.

SK-MEL3 = type: functional, cell-based, Homo sapiens, SK-MEL-3; details: Homo sapiens, SK-MEL3;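 also: growth inhibition of human SK-MEL-3 cells, read out with a cell viability assay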
Description: SANGER: Inhibition of human SK-MEL-3 cell growth in a cell viability assay.

SW780 = type: functional, cell-based, Homo sapiens; details: Homo sapiens, SW780;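 also: growth inhibition of the cells, read out with a cell viability assay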
Description: SANGER: Inhibition of human SW780 cell growth in a cell viability assay.

ALL-PO = type: functional, cell-based; details: Homo sapiens;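 also: growth inhibition of ALL-PO cells, read out by a cell viability assay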
Description: SANGER: Inhibition of human ALL-PO cell growth in a cell viability assay.

BT-474 = type: functional, cell-based, Homo sapiens; details: Homo sapiens, BT-474
Description: SANGER: Inhibition of human BT-474 cell growth in a cell viability assay.

BV-173 = type: functional, cell-based; details: Homo sapiens
Description: SANGER: Inhibition of human BV-173 cell growth in a cell viability assay.

TGW = type: functional, cell-based; details: Homo sapiens;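 also: growth inhibition of human TGW cells, read out with a cell viability assay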
Description: SANGER: Inhibition of human TGW cell growth in a cell viability assay.

TYK-nu = type: functional, cell-based, Homo sapiens; details: Homo sapiens, TYK-nu;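 also: growth inhibition of human TYK-nu cells, read out by a cell viability assay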
Description: SANGER: Inhibition of human TYK-nu cell growth in a cell viability assay.

UACC-893 = type: functional, cell-based, Homo sapiens; details: Homo sapiens, UACC-893
Description: SANGER: Inhibition of human UACC-893 cell growth in a cell viability assay.

WM-115 = type: functional, cell-based, Homo sapiens; details: Homo sapiens, WM-115
Description: SANGER: Inhibition of human WM-115 cell growth in a cell viability assay.

CCRF-CEM = type: functional, cell-based; details: Homo sapiens;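 also: inhibition of CCRF-CEM cell growth, measured by a cell viability assay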
Description: SANGER: Inhibition of human CCRF-CEM cell growth in a cell viability assay.

SMILES: COc1cc(F)c(F)c(Nc2ccc(I)cc2F)c1NS(=O)(=O)C1(CC(O)CO)CC1 (configuration not stated)
- IC50 (COLO-741): 0.915 µM
- IC50 (COR-L23): 2.78 µM
- IC50 (Ca-Ski): > 5 µM
- IC50 (D-392MG): > 5 µM
- IC50 (D-502MG): 3.81 µM
- IC50 (GI-ME-N): 1.58 µM
- IC50 (GMS-10): 3.8 µM
- IC50 (GT3TKB): > 5 µM
- IC50 (HCC1569): > 5 µM
- IC50 (HCC70): > 5 µM
- IC50 (HEC-1): > 5 µM
- IC50 (HT-1080): 0.538 µM
- IC50 (HT1197): > 5 µM
- IC50 (Hs-578T): 1.76 µM
- IC50 (JVM-3): 4.38 µM
- IC50 (KP-N-YN): > 5 µM
- IC50 (KYSE-140): 2.9 µM
- IC50 (KYSE-150 cell line): 3.4 µM
- IC50 (KYSE-450): > 5 µM
- IC50 (L-363): > 5 µM
- IC50 (LAN-6): 0.521 µM
- IC50 (LU-134-A): > 5 µM
- IC50 (LoVo): 0.396 µM
- IC50 (MDA-MB-361): > 5 µM
- IC50 (MOLT-4): > 5 µM
- IC50 (MV4-11): 0.812 µM
- IC50 (MZ7-mel): 0.375 µM
- IC50 (NCI-H2087): 2.42 µM
- IC50 (NCI-H2347): 0.868 µM
- IC50 (NCI-H2405): 1.87 µM
- IC50 (NCI-H358): > 5 µM
- IC50 (NCI-H810): > 5 µM
- IC50 (OE19): > 5 µM
- IC50 (ONS-76): 0.5 µM
- IC50 (RCC10RGB): > 5 µM
- IC50 (RCM-1): 0.136 µM
- IC50 (RS4-11): > 5 µM
- IC50 (RXF 393): 1.45 µM
- IC50 (SCC-25): 0.49 µM
- IC50 (SCC-9): > 5 µM
- IC50 (SK-LU-1): > 5 µM
- IC50 (SK-MEL3): 2.46 µM
- IC50 (SW780): 0.758 µM
- IC50 (ALL-PO): > 5 µM
- IC50 (BT-474): > 5 µM
- IC50 (BV-173): 2.38 µM
- IC50 (TGW): > 5 µM
- IC50 (TYK-nu): 0.441 µM
- IC50 (UACC-893): > 5 µM
- IC50 (WM-115): 0.421 µM
- IC50 (CCRF-CEM): > 5 µM

SMILES: O=C1N=C(NCc2cccs2)S/C1=C\c1ccc2ncccc2c1
- IC50 (COLO-741): > 5 µM
- IC50 (COR-L23): > 5 µM
- IC50 (Ca-Ski): > 5 µM
- IC50 (D-392MG): > 5 µM
- IC50 (D-502MG): > 5 µM
- IC50 (GI-ME-N): > 5 µM
- IC50 (GMS-10): > 5 µM
- IC50 (GT3TKB): > 5 µM
- IC50 (HCC1569): > 5 µM
- IC50 (HCC70): > 5 µM
- IC50 (HEC-1): > 5 µM
- IC50 (HT-1080): > 5 µM
- IC50 (HT1197): > 5 µM
- IC50 (Hs-578T): 2.28 µM
- IC50 (JVM-3): > 5 µM
- IC50 (KP-N-YN): > 5 µM
- IC50 (KYSE-140): > 5 µM
- IC50 (KYSE-150 cell line): > 5 µM
- IC50 (KYSE-450): > 5 µM
- IC50 (L-363): > 5 µM
- IC50 (LAN-6): > 5 µM
- IC50 (LU-134-A): > 5 µM
- IC50 (LoVo): > 5 µM
- IC50 (MDA-MB-361): > 5 µM
- IC50 (MOLT-4): > 5 µM
- IC50 (MV4-11): > 5 µM
- IC50 (MZ7-mel): > 5 µM
- IC50 (NCI-H2087): > 5 µM
- IC50 (NCI-H2347): > 5 µM
- IC50 (NCI-H2405): 4.74 µM
- IC50 (NCI-H358): > 5 µM
- IC50 (NCI-H810): > 5 µM
- IC50 (OE19): > 5 µM
- IC50 (ONS-76): > 5 µM
- IC50 (RCC10RGB): > 5 µM
- IC50 (RCM-1): > 5 µM
- IC50 (RS4-11): > 5 µM
- IC50 (RXF 393): > 5 µM
- IC50 (SCC-25): > 5 µM
- IC50 (SCC-9): > 5 µM
- IC50 (SK-LU-1): > 5 µM
- IC50 (SK-MEL3): > 5 µM
- IC50 (SW780): > 5 µM
- IC50 (ALL-PO): 1.91 µM
- IC50 (BT-474): > 5 µM
- IC50 (BV-173): > 5 µM
- IC50 (TGW): > 5 µM
- IC50 (TYK-nu): > 5 µM
- IC50 (UACC-893): > 5 µM
- IC50 (WM-115): > 5 µM
- IC50 (CCRF-CEM): > 5 µM

SMILES: O=c1cc(-c2cccc3c2Sc2ccccc2S3)oc(N2CCOCC2)c1 [KU-55933]
- IC50 (COLO-741): > 10 µM
- IC50 (COR-L23): > 10 µM
- IC50 (Ca-Ski): > 10 µM
- IC50 (D-392MG): > 10 µM
- IC50 (D-502MG): > 10 µM
- IC50 (GI-ME-N): > 10 µM
- IC50 (GMS-10): > 10 µM
- IC50 (GT3TKB): > 10 µM
- IC50 (HCC1569): > 10 µM
- IC50 (HCC70): > 10 µM
- IC50 (HEC-1): > 10 µM
- IC50 (HT-1080): > 10 µM
- IC50 (HT1197): > 10 µM
- IC50 (Hs-578T): > 10 µM
- IC50 (JVM-3): > 10 µM
- IC50 (KP-N-YN): > 10 µM
- IC50 (KYSE-140): > 10 µM
- IC50 (KYSE-150 cell line): > 10 µM
- IC50 (KYSE-450): > 10 µM
- IC50 (L-363): > 10 µM
- IC50 (LAN-6): > 10 µM
- IC50 (LU-134-A): > 10 µM
- IC50 (LoVo): 6.93 µM
- IC50 (MDA-MB-361): > 10 µM
- IC50 (MOLT-4): > 10 µM
- IC50 (MV4-11): > 10 µM
- IC50 (MZ7-mel): > 10 µM
- IC50 (NCI-H2087): > 10 µM
- IC50 (NCI-H2347): > 10 µM
- IC50 (NCI-H2405): > 10 µM
- IC50 (NCI-H358): > 10 µM
- IC50 (NCI-H810): > 10 µM
- IC50 (OE19): > 10 µM
- IC50 (ONS-76): > 10 µM
- IC50 (RCC10RGB): > 10 µM
- IC50 (RCM-1): > 10 µM
- IC50 (RS4-11): > 10 µM
- IC50 (RXF 393): > 10 µM
- IC50 (SCC-25): > 10 µM
- IC50 (SCC-9): > 10 µM
- IC50 (SK-LU-1): > 10 µM
- IC50 (SK-MEL3): 8.29 µM
- IC50 (SW780): > 10 µM
- IC50 (ALL-PO): > 10 µM
- IC50 (BT-474): > 10 µM
- IC50 (TGW): > 10 µM
- IC50 (TYK-nu): > 10 µM
- IC50 (UACC-893): > 10 µM
- IC50 (WM-115): > 10 µM
- IC50 (CCRF-CEM): > 10 µM
